Assays:
[1] = target: T1, 5-hydroxytryptamine receptor 1A (Homo sapiens, UniProt P08908); assay: Binding affinity to human cloned 5-hydroxytryptamine 1A receptor in HEK 293 cells using [3H]-8-OH- DPAT as radioligand; type: cell-based, HEK293
T1 sequence (P08908 whole entry): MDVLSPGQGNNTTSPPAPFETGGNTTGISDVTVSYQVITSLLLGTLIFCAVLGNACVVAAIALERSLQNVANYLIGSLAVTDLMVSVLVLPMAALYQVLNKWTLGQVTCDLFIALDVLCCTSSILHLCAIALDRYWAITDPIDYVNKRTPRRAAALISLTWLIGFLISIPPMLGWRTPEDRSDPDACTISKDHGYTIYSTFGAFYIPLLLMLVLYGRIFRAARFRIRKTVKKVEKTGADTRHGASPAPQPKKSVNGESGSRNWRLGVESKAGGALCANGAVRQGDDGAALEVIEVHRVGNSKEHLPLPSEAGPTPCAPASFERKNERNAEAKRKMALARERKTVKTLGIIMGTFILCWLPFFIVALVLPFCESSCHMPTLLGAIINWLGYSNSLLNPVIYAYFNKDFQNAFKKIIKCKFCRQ

[2] = target: 5-hydroxytryptamine receptor 1B (Homo sapiens, UniProt P28222); assay: Binding affinity to human cloned 5-hydroxytryptamine 1B receptor in CHO cells using [3H]5-HT as radioligand; type: cell-based
[3] = target: 5-hydroxytryptamine receptor 1D (Homo sapiens, UniProt P28221); assay: Binding affinity to human cloned 5-hydroxytryptamine 1D receptor in CHO cells using [3H]5-HT as radioligand; type: cell-based
[4] = target: 5-hydroxytryptamine receptor 2A (Homo sapiens, UniProt P28223); assay: Binding affinity to human cloned 5-hydroxytryptamine 2A receptor in HEK 293 cells using [3H]- ketanserin as radioligand; type: cell-based, HEK293
[5] = target: T2, 5-hydroxytryptamine receptor 2C (Homo sapiens, UniProt P28335); assay: Binding affinity to human cloned 5-hydroxytryptamine 2C receptor in HEK 293 cells using [3H]- mesulergine as radioligand; type: cell-based, HEK293
T2 sequence (P28335 whole entry): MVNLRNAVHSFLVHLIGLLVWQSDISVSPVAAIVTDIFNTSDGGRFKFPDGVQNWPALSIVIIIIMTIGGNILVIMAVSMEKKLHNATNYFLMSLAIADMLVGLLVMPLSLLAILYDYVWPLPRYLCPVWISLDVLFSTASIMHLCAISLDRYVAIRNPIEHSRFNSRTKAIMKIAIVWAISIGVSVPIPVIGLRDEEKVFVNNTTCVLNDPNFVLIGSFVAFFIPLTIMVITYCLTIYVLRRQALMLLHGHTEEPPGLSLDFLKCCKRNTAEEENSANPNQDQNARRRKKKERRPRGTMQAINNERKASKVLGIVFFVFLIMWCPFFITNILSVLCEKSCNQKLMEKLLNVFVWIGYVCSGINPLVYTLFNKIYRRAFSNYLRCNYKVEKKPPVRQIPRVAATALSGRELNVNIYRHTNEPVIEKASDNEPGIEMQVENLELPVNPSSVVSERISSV

[6] = target: 5-hydroxytryptamine receptor 2B (Homo sapiens, UniProt P41595); assay: Binding affinity to human cloned 5-HT2B receptor in HEK 293 cells using [3H]- -5-HT as radioligand; type: cell-based, HEK293
[7] = target: 5-hydroxytryptamine receptor 7 (Homo sapiens, UniProt P34969); assay: Binding affinity to human cloned 5-hydroxytryptamine 7 receptor in HEK 293 cells using [3H]-5-CT as radioligand; type: cell-based, HEK293
[8] = target: T3, 5-hydroxytryptamine receptor 6 (Homo sapiens, UniProt P50406); assay: Binding affinity against human 5-hydroxytryptamine 6 receptor
[9] = target: T3, 5-hydroxytryptamine receptor 6; assay: Binding affinity to human cloned 5-HT6 receptor in HeLa cells using [3H]- LSD as radioligand; type: cell-based
[10] = target: D(2) dopamine receptor (Homo sapiens, UniProt P14416); assay: Binding affinity to human cloned Dopamine receptor D2 in CHO cells using [125I]- iodosulpride as radioligand; type: cell-based
[11] = target: D(3) dopamine receptor (Homo sapiens, UniProt P35462); assay: Binding affinity to human cloned Dopamine receptor D3 in CHO cells using [125I]- iodosulpride as radioligand; type: cell-based
[12] = Selectivity ratio as antilogarithm of smallest difference between the pKi value at 5-HT6 receptor and range of comparator receptors
[13] = target: T3, 5-hydroxytryptamine receptor 6; assay: Binding affinity to human cloned 5-hydroxytryptamine 6 receptor in HeLa cells using [3H]- LSD as radioligand; type: cell-based

Chain of D(3) dopamine receptor (P35462 whole entry): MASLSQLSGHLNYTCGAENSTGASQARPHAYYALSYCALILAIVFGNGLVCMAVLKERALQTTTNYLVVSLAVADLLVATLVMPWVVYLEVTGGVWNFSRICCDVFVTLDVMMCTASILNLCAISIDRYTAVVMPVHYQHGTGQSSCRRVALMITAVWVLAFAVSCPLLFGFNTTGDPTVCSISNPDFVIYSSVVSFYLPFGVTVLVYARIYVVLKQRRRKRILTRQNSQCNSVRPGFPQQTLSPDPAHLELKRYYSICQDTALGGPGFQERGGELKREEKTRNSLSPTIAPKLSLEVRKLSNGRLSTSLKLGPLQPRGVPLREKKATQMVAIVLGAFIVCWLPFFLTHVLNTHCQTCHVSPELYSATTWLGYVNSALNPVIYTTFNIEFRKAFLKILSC
Chain of 5-hydroxytryptamine receptor 1B (P28222 whole entry): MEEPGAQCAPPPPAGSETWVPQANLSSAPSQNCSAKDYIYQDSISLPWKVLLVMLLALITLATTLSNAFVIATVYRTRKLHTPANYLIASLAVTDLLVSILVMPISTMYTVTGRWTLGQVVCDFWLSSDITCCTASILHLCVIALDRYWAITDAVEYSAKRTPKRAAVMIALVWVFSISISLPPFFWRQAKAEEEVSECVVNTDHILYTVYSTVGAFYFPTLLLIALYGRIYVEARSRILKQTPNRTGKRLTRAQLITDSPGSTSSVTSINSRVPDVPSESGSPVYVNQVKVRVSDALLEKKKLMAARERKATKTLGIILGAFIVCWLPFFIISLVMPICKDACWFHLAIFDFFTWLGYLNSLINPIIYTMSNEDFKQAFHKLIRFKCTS
Chain of 5-hydroxytryptamine receptor 2A (P28223 whole entry): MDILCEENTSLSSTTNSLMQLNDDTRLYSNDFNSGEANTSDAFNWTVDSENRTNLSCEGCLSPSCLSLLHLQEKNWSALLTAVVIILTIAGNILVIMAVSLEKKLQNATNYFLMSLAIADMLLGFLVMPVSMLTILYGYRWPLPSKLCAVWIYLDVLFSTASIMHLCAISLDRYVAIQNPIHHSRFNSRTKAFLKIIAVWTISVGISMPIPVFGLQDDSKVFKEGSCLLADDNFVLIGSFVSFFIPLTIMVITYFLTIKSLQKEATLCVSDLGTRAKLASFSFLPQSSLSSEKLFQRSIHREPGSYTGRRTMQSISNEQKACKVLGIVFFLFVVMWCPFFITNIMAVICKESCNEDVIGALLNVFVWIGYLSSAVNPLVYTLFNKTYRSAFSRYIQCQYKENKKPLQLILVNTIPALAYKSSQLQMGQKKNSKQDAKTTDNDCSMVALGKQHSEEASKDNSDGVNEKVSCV
Chain of 5-hydroxytryptamine receptor 7 (P34969 whole entry): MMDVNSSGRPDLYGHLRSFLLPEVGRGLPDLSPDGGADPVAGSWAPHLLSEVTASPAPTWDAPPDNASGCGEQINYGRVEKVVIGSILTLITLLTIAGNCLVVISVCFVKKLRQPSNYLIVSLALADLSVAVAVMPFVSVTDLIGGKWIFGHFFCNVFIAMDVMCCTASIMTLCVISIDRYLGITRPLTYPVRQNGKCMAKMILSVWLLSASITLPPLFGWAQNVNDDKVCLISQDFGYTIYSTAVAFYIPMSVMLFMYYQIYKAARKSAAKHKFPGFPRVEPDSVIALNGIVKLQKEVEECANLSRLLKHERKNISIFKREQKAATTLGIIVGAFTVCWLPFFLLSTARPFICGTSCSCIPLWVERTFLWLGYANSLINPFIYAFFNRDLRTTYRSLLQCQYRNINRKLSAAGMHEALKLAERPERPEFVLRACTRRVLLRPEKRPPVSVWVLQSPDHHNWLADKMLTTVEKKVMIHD
Chain of 5-hydroxytryptamine receptor 2B (P41595 whole entry): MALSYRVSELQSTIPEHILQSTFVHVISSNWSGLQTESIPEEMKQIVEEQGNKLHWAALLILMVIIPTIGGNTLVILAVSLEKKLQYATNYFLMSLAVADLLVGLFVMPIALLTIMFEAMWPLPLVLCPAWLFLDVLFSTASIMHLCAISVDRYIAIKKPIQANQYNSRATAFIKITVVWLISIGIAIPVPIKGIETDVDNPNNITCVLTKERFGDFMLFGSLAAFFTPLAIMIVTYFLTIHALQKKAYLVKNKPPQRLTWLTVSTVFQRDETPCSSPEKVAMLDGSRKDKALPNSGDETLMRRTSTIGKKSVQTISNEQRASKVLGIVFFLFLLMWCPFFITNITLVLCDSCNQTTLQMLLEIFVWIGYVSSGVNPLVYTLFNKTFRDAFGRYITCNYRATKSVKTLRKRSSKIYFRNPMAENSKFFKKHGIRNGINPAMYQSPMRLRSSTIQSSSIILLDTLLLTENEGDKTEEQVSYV
T3 sequence (P50406 whole entry): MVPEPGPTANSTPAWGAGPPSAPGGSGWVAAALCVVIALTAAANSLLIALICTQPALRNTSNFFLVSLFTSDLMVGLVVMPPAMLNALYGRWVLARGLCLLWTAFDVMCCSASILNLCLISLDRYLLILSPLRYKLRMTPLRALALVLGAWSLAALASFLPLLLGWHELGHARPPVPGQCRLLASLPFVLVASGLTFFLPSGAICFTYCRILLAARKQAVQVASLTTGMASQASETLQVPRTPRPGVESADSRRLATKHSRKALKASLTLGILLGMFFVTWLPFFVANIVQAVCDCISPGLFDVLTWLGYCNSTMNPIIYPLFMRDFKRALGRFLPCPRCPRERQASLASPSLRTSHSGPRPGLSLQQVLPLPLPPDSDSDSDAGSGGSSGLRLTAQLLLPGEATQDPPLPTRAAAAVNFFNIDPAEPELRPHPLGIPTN
Chain of D(2) dopamine receptor (P14416 whole entry): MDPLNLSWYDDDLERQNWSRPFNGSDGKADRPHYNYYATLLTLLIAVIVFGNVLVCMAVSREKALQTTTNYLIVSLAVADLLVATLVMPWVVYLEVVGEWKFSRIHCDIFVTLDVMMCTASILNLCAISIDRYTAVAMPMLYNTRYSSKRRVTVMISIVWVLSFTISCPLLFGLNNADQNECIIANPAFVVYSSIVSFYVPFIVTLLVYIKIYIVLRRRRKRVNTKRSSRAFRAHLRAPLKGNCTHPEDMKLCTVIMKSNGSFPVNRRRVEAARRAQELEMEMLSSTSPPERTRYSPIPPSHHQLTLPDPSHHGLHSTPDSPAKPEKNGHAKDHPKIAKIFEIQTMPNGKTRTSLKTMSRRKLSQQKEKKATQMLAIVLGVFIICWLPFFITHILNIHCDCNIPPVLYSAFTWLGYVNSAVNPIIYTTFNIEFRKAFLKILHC
Chain of 5-hydroxytryptamine receptor 1D (P28221 whole entry): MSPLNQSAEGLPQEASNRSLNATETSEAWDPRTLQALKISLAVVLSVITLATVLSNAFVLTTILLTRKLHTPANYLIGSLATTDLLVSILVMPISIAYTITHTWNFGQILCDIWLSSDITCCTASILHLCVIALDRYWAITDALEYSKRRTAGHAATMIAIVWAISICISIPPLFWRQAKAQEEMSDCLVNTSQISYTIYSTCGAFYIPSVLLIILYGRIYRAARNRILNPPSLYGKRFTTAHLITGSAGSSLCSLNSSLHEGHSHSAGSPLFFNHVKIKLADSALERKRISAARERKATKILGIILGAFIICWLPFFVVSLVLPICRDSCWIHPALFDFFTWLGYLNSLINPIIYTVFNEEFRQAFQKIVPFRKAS

Row | Ki [1] [µM] | Ki [2] [µM] | Ki [3] [µM] | Ki [4] [µM] | Ki [5] [µM] | Ki [6] [µM] | Ki [7] [µM] | Ki [8] [µM] | Ki [9] [µM] | Ki [10] [µM] | Ki [11] [µM] | Selectivity ratio [12] | Ki [13] [µM] | SMILES
1 | 1 | 2.51 | 0.398 | > 2.51 | > 3.98 | > 6.31 | > 5.01 | 0.00126 | 0.00126 | > 3.16 | > 2 | 320 |  | Cc1c(S(=O)(=O)Nc2ccc3nccc(N4CCN[C@@H](C)C4)c3c2)sc2ccc(Cl)cc12
2 |  |  |  |  |  |  |  | 0.00316 |  |  |  | 80 |  | O=S(=O)(Nc1ccc2nccc(N3CCNCC3)c2c1)c1cccc2c(Cl)cccc12
3 | 0.794 | 1.26 | 0.316 | > 2 | 2.51 | > 7.94 | > 5.01 | 0.00126 | 0.00126 | > 6.31 | > 1 | 250 |  | Cc1cc(N2CCNCC2)c2cc(NS(=O)(=O)c3sc4ccc(Cl)cc4c3C)ccc2n1
4 |  |  |  |  |  |  |  | 0.00631 |  |  |  | 25 |  | Cc1c(S(=O)(=O)Nc2ccc3nccc(N4CCNCC4)c3c2)sc2c(Cl)cc(Cl)cc12
5 |  |  |  |  |  |  |  | 0.00158 |  |  |  | 160 |  | CC(C)c1c(S(=O)(=O)Nc2ccc3nccc(N4CCNCC4)c3c2)sc2ccc(Cl)cc12
6 |  |  |  |  |  |  |  | 0.00501 |  |  |  | 160 |  | Cc1c(S(=O)(=O)Nc2ccc3nccc(N4C[C@@H](C)N[C@@H](C)C4)c3c2)sc2ccc(Cl)cc12
7 | 0.794 | 0.501 | 0.251 | 1 | > 5.01 | > 10 | 2 | 0.001 | 0.001 | > 7.94 | > 3.98 | 250 |  | Cc1c(S(=O)(=O)Nc2ccc3nccc(N4CCN(C)CC4)c3c2)sc2ccc(Cl)cc12
8 |  |  |  |  |  |  |  | 0.002 |  |  |  | 200 |  | Cc1sc2c(Cl)cc(Cl)cc2c1S(=O)(=O)Nc1ccc2nccc(N3CCNCC3)c2c1
9 | 0.251 | 0.501 | 0.398 | > 2 | 1.26 | 1.26 | 1.58 | 0.001 | 0.001 | > 3.98 | > 1.58 | 250 |  | Cc1sc2ccc(Cl)cc2c1S(=O)(=O)Nc1ccc2nccc(N3CCNCC3)c2c1
10 |  |  |  |  |  |  |  | 0.00158 |  |  |  | 100 |  | O=S(=O)(Nc1ccc2nccc(N3CCNCC3)c2c1)c1ccc(I)cc1
11 | > 3.98 | 3.16 | 2.51 | > 1.26 | 1.26 | > 3.98 | > 5.01 | 0.00126 | 0.00126 | > 1 | > 10 | 1000 |  | CCc1c(S(=O)(=O)Nc2ccc3nccc(N4CCNCC4)c3c2)sc2ccc(Cl)cc12
12 |  |  |  |  |  |  |  | 0.002 |  |  |  | 3200 |  | Cc1c(S(=O)(=O)Nc2ccc3nccc(N4CCN[C@H](C)C4)c3c2)sc2ccc(Cl)cc12
13 | 0.631 | 0.316 | 0.158 | 0.501 |  | > 7.94 | > 10 | 0.000501 | 0.000501 | > 5.01 | > 3.16 | 320 |  | O=S(=O)(Nc1ccc2nccc(N3CCNCC3)c2c1)c1ccc(-c2ccccc2)cc1
14 |  |  |  |  |  |  |  | 0.0316 |  |  |  |  |  | Cc1c(S(=O)(=O)Nc2ccc3nccc(N4C[C@@H](C)NC[C@@H]4C)c3c2)sc2ccc(Cl)cc12
15 | 0.794 | 1.58 | 1.26 | > 3.16 | > 2 | > 5.01 | > 10 | 0.000631 |  | > 10 | > 5.01 | 1260 | 0.000631 | CC(C)(C)c1ccc(S(=O)(=O)Nc2ccc3nccc(N4CCNCC4)c3c2)cc1

Second part, the compound before the results:

Row | SMILES | Ki [1] [µM] | Ki [2] [µM] | Ki [3] [µM] | Ki [4] [µM] | Ki [5] [µM] | Ki [6] [µM] | Ki [7] [µM] | Ki [8] [µM] | Ki [9] [µM] | Ki [10] [µM] | Ki [11] [µM] | Selectivity ratio [12] | Ki [13] [µM]
16 | O=S(=O)(Nc1ccc2nccc(N3CCNCC3)c2c1)c1ccc2c(Cl)cccc2c1 | 0.158 | 0.631 | 0.2 | 1 | > 2.51 | > 5.01 | 2.51 | 0.001 | 0.001 | > 5.01 | 2.51 | 160 | 
17 | O=S(=O)(Nc1ccc2nccc(N3CCNCC3)c2c1)c1cc(Cl)cc(Cl)c1 |  |  |  |  |  |  |  | 0.0251 |  |  |  |  | 
18 | Cc1sc2cc(Cl)cc(Cl)c2c1S(=O)(=O)Nc1ccc2nccc(N3CCNCC3)c2c1 |  |  |  |  |  |  |  | 0.00794 |  |  |  | 40 | 
19 | Cc1c(S(=O)(=O)Nc2ccc3nccc(N4CCN5CCC[C@H]5C4)c3c2)sc2ccc(Cl)cc12 |  |  |  |  |  |  |  | 0.002 |  |  |  | 130 | 
20 | Cc1sc2c(Cl)cccc2c1S(=O)(=O)Nc1ccc2nccc(N3CCNCC3)c2c1 |  |  |  |  |  |  |  | 0.002 |  |  |  | 130 | 
21 | Cc1c(S(=O)(=O)Nc2ccc3nccc(N4CCNCC4)c3c2)sc2ccc(Cl)cc12 | 1 | 2 | 0.631 | > 2.51 | > 2.51 | > 5.01 | > 7.94 | 0.002 | 0.002 | > 10 | > 1.58 | 320 | 
22 | Cc1cnc2ccc(NS(=O)(=O)c3sc4ccc(Cl)cc4c3C)cc2c1N1CCNCC1 |  |  |  |  |  |  |  | 0.00251 |  |  |  | 100 | 
23 | Cc1c(S(=O)(=O)Nc2ccc3nccc(N4CCNCC4)c3c2)oc2ccc(Cl)cc12 |  |  |  |  |  |  |  | 0.00398 |  |  |  | 200 | 
24 | Cc1cc(S(=O)(=O)Nc2ccc3nccc(N4CCNCC4)c3c2)c(C)cc1Cl |  |  |  |  |  |  |  | 0.00126 |  |  |  | 500 | 
25 | Cc1c(S(=O)(=O)Nc2ccc3nccc(N4CCN[C@H](C(C)C)C4)c3c2)sc2ccc(Cl)cc12 |  |  |  |  |  |  |  | 0.02 |  |  |  |  | 
26 | Cc1c(S(=O)(=O)Nc2ccc3ncc(N4CCN(C)CC4)cc3c2)sc2ccc(Cl)cc12 |  |  |  |  |  |  |  | 0.0794 |  |  |  |  | 

Source: ChEMBL document CHEMBL1134724, “Novel (4-piperazin-1-ylquinolin-6-yl) arylsulfonamides with high affinity and selectivity for the 5-HT(6) receptor” (Bioorg Med Chem Lett, 2001)
